Test results taken from US20100267561A1, “HERBICIDAL PYRIDAZINONE DERIVATIVES” (priority 2007, published 2010).

Key:
Assay in all cases: Test C pre-/postemergence plant response
Assay type in all cases: in vivo
[1] = tested on: Italian ryegrass (Lolium multiflorum)
In short: (§1)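 Test chemicals in a non-phytotoxic solvent with surfactant were applied preemergence, and some were also applied postemergence to plants 2–18 cm tall (1- to 4-leaf stage). Visual ratings against controls were made after 15–25 days in a controlled environment, on a 0–100 scale where 100 means complete control.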

[2] = tested on: annual bluegrass (Poa annua)
In short: as §1

[3] = tested on: blackgrass (Alopecurus myosuroides)
In short: as §1

[4] = tested on: canarygrass (Phalaris minor); settings: Preemergence
In short: as §1

[5] = tested on: canola (Brassica rapa)
In short: as §1

[6] = tested on: downy bromegrass (Bromus tectorum)
In short: as §1

[7] = tested on: green foxtail (Setaria viridis)
In short: as §1

[8] = tested on: pigweed (Amaranthus retroflexus)
In short: as §1

[9] = tested on: spring barley (Hordeum vulgare)
In short: as §1

[10] = tested on: spring wheat (Triticum aestivum)
In short: as §1

[11] = tested on: wild mustard (Sinapis arvensis)
In short: as §1

[12] = tested on: wild oat (Avena fatua)
In short: as §1

[13] = tested on: windgrass (Apera spica-venti)
In short: as §1

[14] = tested on: winter barley (Hordeum vulgare)
In short: as §1

[15] = tested on: winter wheat (Triticum aestivum)
In short: as §1

[16] = Postemergence, 8 g ai/ha, scale 0 to 100, 0 no effect, 100 complete control
[17] = Postemergence, 16 g ai/ha, scale 0 to 100, 0 no effect, 100 complete control
[18] = Postemergence, 31 g ai/ha, scale 0 to 100, 0 no effect, 100 complete control
[19] = Postemergence, 62 g ai/ha, scale 0 to 100, 0 no effect, 100 complete control
[20] = Preemergence, 8 g ai/ha, scale 0 to 100 (0 no effect, 100 complete control)
[21] = Preemergence, 16 g ai/ha, scale 0 to 100 (0 no effect, 100 complete control)
[22] = Preemergence, 31 g ai/ha, scale 0 to 100 (0 no effect, 100 complete control)
[23] = Preemergence, 62 g ai/ha, scale 0 to 100, 0 no effect, 100 complete control
[24] = 8 g ai/ha, scale 0 to 100 (0 no effect, 100 complete control)
[25] = 16 g ai/ha, scale 0 to 100 (0 no effect, 100 complete control)
[26] = 31 g ai/ha, scale 0 to 100 (0 no effect, 100 complete control)
[27] = 62 g ai/ha, scale 0 to 100, 0 no effect, 100 complete control

Structure (SMILES): Cc1nn(C)c(=O)c(-n2nc(-c3ccc(Cl)cc3)cc2C)c1O [Compound 15]
- Plant response rating, Ryegrass, Italian [1, 16]: 50
- Plant response rating, Ryegrass, Italian [1, 17]: 100
- Plant response rating, Ryegrass, Italian [1, 18]: 100
- Plant response rating, Ryegrass, Italian [1, 19]: 100
- Plant response rating, Ryegrass, Italian [1, 20]: 15
- Plant response rating, Ryegrass, Italian [1, 21]: 100
- Plant response rating, Ryegrass, Italian [1, 22]: 100
- Plant response rating, Ryegrass, Italian [1, 23]: 100
- Plant response rating, Bluegrass [2, 16]: 0
- Plant response rating, Bluegrass [2, 17]: 25
- Plant response rating, Bluegrass [2, 18]: 40
- Plant response rating, Bluegrass [2, 19]: 50
- Plant response rating, Bluegrass [2, 20]: 40
- Plant response rating, Bluegrass [2, 21]: 60
- Plant response rating, Bluegrass [2, 22]: 75
- Plant response rating, Bluegrass [2, 23]: 90
- Plant response rating, Blackgrass [3, 16]: 75
- Plant response rating, Blackgrass [3, 17]: 95
- Plant response rating, Blackgrass [3, 18]: 98
- Plant response rating, Blackgrass [3, 19]: 100
- Plant response rating, Blackgrass [3, 20]: 70
- Plant response rating, Blackgrass [3, 21]: 80
- Plant response rating, Blackgrass [3, 22]: 95
- Plant response rating, Blackgrass [3, 23]: 98
- Plant response rating, Canarygrass [4, 24]: 20
- Plant response rating, Canarygrass [4, 25]: 70
- Plant response rating, Canarygrass [4, 26]: 80
- Plant response rating, Canarygrass [4, 27]: 95
- Plant response rating, Canola [5, 16]: 0
- Plant response rating, Canola [5, 17]: 0
- Plant response rating, Canola [5, 18]: 0
- Plant response rating, Canola [5, 19]: 0
- Plant response rating, Canola [5, 20]: 0
- Plant response rating, Canola [5, 21]: 0
- Plant response rating, Canola [5, 22]: 0
- Plant response rating, Canola [5, 23]: 0
- Plant response rating, Bromegrass, Downy [6, 16]: 0
- Plant response rating, Bromegrass, Downy [6, 17]: 15
- Plant response rating, Bromegrass, Downy [6, 18]: 20
- Plant response rating, Bromegrass, Downy [6, 19]: 30
- Plant response rating, Bromegrass, Downy [6, 20]: 0
- Plant response rating, Bromegrass, Downy [6, 21]: 20
- Plant response rating, Bromegrass, Downy [6, 22]: 35
- Plant response rating, Bromegrass, Downy [6, 23]: 70
- Plant response rating, Foxtail, Green [7, 16]: 90
- Plant response rating, Foxtail, Green [7, 17]: 95
- Plant response rating, Foxtail, Green [7, 18]: 98
- Plant response rating, Foxtail, Green [7, 19]: 98
- Plant response rating, Foxtail, Green [7, 20]: 60
- Plant response rating, Foxtail, Green [7, 21]: 98
- Plant response rating, Foxtail, Green [7, 22]: 100
- Plant response rating, Foxtail, Green [7, 23]: 100
- Plant response rating, Pigweed [8, 16]: 0
- Plant response rating, Pigweed [8, 17]: 0
- Plant response rating, Pigweed [8, 18]: 0
- Plant response rating, Pigweed [8, 19]: 0
- Plant response rating, Pigweed [8, 20]: 0
- Plant response rating, Pigweed [8, 21]: 0
- Plant response rating, Pigweed [8, 22]: 0
- Plant response rating, Pigweed [8, 23]: 0
- Plant response rating, Barley, Spring [9, 16]: 0
- Plant response rating, Barley, Spring [9, 17]: 0
- Plant response rating, Barley, Spring [9, 18]: 0
- Plant response rating, Barley, Spring [9, 19]: 50
- Plant response rating, Barley, Spring [9, 20]: 0
- Plant response rating, Barley, Spring [9, 21]: 0
- Plant response rating, Barley, Spring [9, 22]: 40
- Plant response rating, Barley, Spring [9, 23]: 65
- Plant response rating, Wheat, Spring [10, 16]: 0
- Plant response rating, Wheat, Spring [10, 17]: 0
- Plant response rating, Wheat, Spring [10, 18]: 15
- Plant response rating, Wheat, Spring [10, 19]: 70
- Plant response rating, Wheat, Spring [10, 20]: 0
- Plant response rating, Wheat, Spring [10, 21]: 10
- Plant response rating, Wheat, Spring [10, 22]: 35
- Plant response rating, Wheat, Spring [10, 23]: 70
- Plant response rating, Mustard, Wild [11, 16]: 0
- Plant response rating, Mustard, Wild [11, 17]: 0
- Plant response rating, Mustard, Wild [11, 18]: 0
- Plant response rating, Mustard, Wild [11, 19]: 20
- Plant response rating, Mustard, Wild [11, 20]: 0
- Plant response rating, Mustard, Wild [11, 21]: 0
- Plant response rating, Mustard, Wild [11, 22]: 0
- Plant response rating, Oat, Wild [12, 16]: 0
- Plant response rating, Oat, Wild [12, 17]: 25
- Plant response rating, Oat, Wild [12, 18]: 90
- Plant response rating, Oat, Wild [12, 19]: 90
- Plant response rating, Oat, Wild [12, 20]: 0
- Plant response rating, Oat, Wild [12, 22]: 50
- Plant response rating, Oat, Wild [12, 23]: 65
- Plant response rating, Windgrass [13, 16]: 0
- Plant response rating, Windgrass [13, 17]: 0
- Plant response rating, Windgrass [13, 18]: 0
- Plant response rating, Windgrass [13, 19]: 40
- Plant response rating, Windgrass [13, 21]: 25
- Plant response rating, Windgrass [13, 22]: 75
- Plant response rating, Windgrass [13, 23]: 95
- Plant response rating, Barley, Winter [14, 16]: 0
- Plant response rating, Barley, Winter [14, 17]: 0
- Plant response rating, Barley, Winter [14, 18]: 10
- Plant response rating, Barley, Winter [14, 19]: 90
- Plant response rating, Barley, Winter [14, 20]: 0
- Plant response rating, Barley, Winter [14, 21]: 20
- Plant response rating, Barley, Winter [14, 22]: 50
- Plant response rating, Barley, Winter [14, 23]: 60
- Plant response rating, Wheat, Winter [15, 16]: 0
- Plant response rating, Wheat, Winter [15, 17]: 0
- Plant response rating, Wheat, Winter [15, 18]: 0
- Plant response rating, Wheat, Winter [15, 19]: 25
- Plant response rating, Wheat, Winter [15, 20]: 0
- Plant response rating, Wheat, Winter [15, 21]: 0
- Plant response rating, Wheat, Winter [15, 22]: 20
- Plant response rating, Wheat, Winter [15, 23]: 25

Structure (SMILES): CCc1cc(-c2ccc(Cl)cc2)nn1-c1c(O)cnn(C)c1=O [Compound 21]
- Plant response rating, Ryegrass, Italian [1, 20]: 98
- Plant response rating, Ryegrass, Italian [1, 21]: 100
- Plant response rating, Ryegrass, Italian [1, 22]: 100
- Plant response rating, Ryegrass, Italian [1, 23]: 100
- Plant response rating, Bluegrass [2, 20]: 0
- Plant response rating, Bluegrass [2, 21]: 0
- Plant response rating, Blackgrass [3, 20]: 95
- Plant response rating, Blackgrass [3, 21]: 98
- Plant response rating, Blackgrass [3, 22]: 100
- Plant response rating, Blackgrass [3, 23]: 100
- Plant response rating, Canarygrass [4, 24]: 65
- Plant response rating, Canarygrass [4, 25]: 75
- Plant response rating, Canarygrass [4, 26]: 90
- Plant response rating, Canarygrass [4, 27]: 100
- Plant response rating, Canola [5, 20]: 0
- Plant response rating, Canola [5, 21]: 0
- Plant response rating, Canola [5, 22]: 0
- Plant response rating, Canola [5, 23]: 0
- Plant response rating, Bromegrass, Downy [6, 20]: 0
- Plant response rating, Bromegrass, Downy [6, 21]: 40
- Plant response rating, Bromegrass, Downy [6, 22]: 75
- Plant response rating, Bromegrass, Downy [6, 23]: 95
- Plant response rating, Foxtail, Green [7, 20]: 50
- Plant response rating, Foxtail, Green [7, 21]: 100
- Plant response rating, Foxtail, Green [7, 22]: 100
- Plant response rating, Foxtail, Green [7, 23]: 100
- Plant response rating, Pigweed [8, 20]: 0
- Plant response rating, Pigweed [8, 21]: 0
- Plant response rating, Pigweed [8, 22]: 0
- Plant response rating, Pigweed [8, 23]: 0
- Plant response rating, Barley, Spring [9, 20]: 20
- Plant response rating, Barley, Spring [9, 21]: 35
- Plant response rating, Barley, Spring [9, 22]: 60
- Plant response rating, Barley, Spring [9, 23]: 75
- Plant response rating, Wheat, Spring [10, 20]: 30
- Plant response rating, Wheat, Spring [10, 21]: 40
- Plant response rating, Wheat, Spring [10, 22]: 60
- Plant response rating, Wheat, Spring [10, 23]: 90
- Plant response rating, Mustard, Wild [11, 20]: 0
- Plant response rating, Mustard, Wild [11, 21]: 0
- Plant response rating, Mustard, Wild [11, 22]: 0
- Plant response rating, Mustard, Wild [11, 23]: 0
- Plant response rating, Oat, Wild [12, 20]: 65
- Plant response rating, Oat, Wild [12, 21]: 75
- Plant response rating, Oat, Wild [12, 22]: 95
- Plant response rating, Oat, Wild [12, 23]: 100
- Plant response rating, Windgrass [13, 20]: 100
- Plant response rating, Windgrass [13, 21]: 100
- Plant response rating, Windgrass [13, 22]: 100
- Plant response rating, Windgrass [13, 23]: 100
- Plant response rating, Barley, Winter [14, 20]: 20
- Plant response rating, Barley, Winter [14, 21]: 40
- Plant response rating, Barley, Winter [14, 22]: 50
- Plant response rating, Barley, Winter [14, 23]: 75
- Plant response rating, Wheat, Winter [15, 20]: 0
- Plant response rating, Wheat, Winter [15, 21]: 50
- Plant response rating, Wheat, Winter [15, 22]: 60
- Plant response rating, Wheat, Winter [15, 23]: 95
